Reference: PubChem BioAssay (NCI)
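Compound exposure: 48 hours, 5 concentrations, 96-well plates. The concentration for 50% growth inhibition is given as GI50. At the TGI there is no net growth.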

Legend:
Assay in all cases: inhibition of tumour cell growth, NCI panel, 48 h
[1] = test system: 786-0 renal
[2] = test system: A498 renal
[3] = test system: A549 NSCLC
[4] = test system: ACHN renal
[5] = test system: BT-549 breast
[6] = test system: CAKI-1 renal
[7] = test system: CCRF-CEM leukemia
[8] = test system: COLO 205 colon
[9] = test system: DU-145 prostate
[10] = test system: EKVX NSCLC
[11] = test system: HCC-2998 colon
[12] = test system: HCT-116 colon
[13] = test system: HCT-15 colon
[14] = test system: HOP-62 NSCLC
[15] = test system: HOP-92 NSCLC
[16] = test system: HS 578T breast
[17] = test system: HT29 colon
[18] = test system: IGROV1 ovarian
[19] = test system: K-562 leukemia
[20] = test system: KM12 colon
[21] = test system: LOX IMVI melanoma
[22] = test system: MALME-3M melanoma
[23] = test system: MCF7 breast
[24] = test system: MDA-MB-231 breast
[25] = test system: MDA-MB-435
[26] = test system: MOLT-4 leukemia
[27] = test system: NCI-H226 lung
[28] = test system: NCI-H23 lung
[29] = test system: NCI-H460 lung
[30] = test system: NCI-H522 lung
[31] = test system: NCI/ADR-RES ovarian
[32] = test system: OVCAR-3 ovarian
[33] = test system: OVCAR-4 ovarian
[34] = test system: OVCAR-5 ovarian
[35] = test system: OVCAR-8 ovarian
[36] = test system: PC-3 prostate
[37] = test system: RPMI-8226 leukemia
[38] = test system: RXF 393 renal
[39] = test system: SF-268 CNS
[40] = test system: SF-295 CNS
[41] = test system: SF-539 CNS
[42] = test system: SK-MEL-2 melanoma
[43] = test system: SK-MEL-28 melanoma
[44] = test system: SK-MEL-5 melanoma
[45] = test system: SK-OV-3 ovarian
[46] = test system: SN12C renal
[47] = test system: SNB-19 CNS
[48] = test system: SW-620 colon
[49] = test system: T-47D breast
[50] = test system: TK-10 renal
[51] = test system: U251 CNS
[52] = test system: UACC-257 melanoma
[53] = test system: UACC-62 melanoma
[54] = test system: UO-31 renal

## COc1ccc(N(/C=C/C(=O)C(F)(F)F)CC(=O)c2ccc(Cl)cc2)cc1
[1]
  GI50: 20.7 µM
  TGI: 57.8 µM
[2]
  GI50: 13.9 µM
  TGI: 28.7 µM
[3]
  GI50: 29.6 µM
  TGI: 87.8 µM
[4]
  GI50: 14.5 µM
  TGI: 27.6 µM
[5]
  GI50: 20.6 µM
  TGI: 65.3 µM
[6]
  GI50: 9.88 µM
  TGI: 29.6 µM
[7]
  GI50: 12.2 µM
  TGI: 38.1 µM
[8]
  GI50: 18.6 µM
  TGI: 40.7 µM
[9]
  GI50: 19.8 µM
  TGI: 40.4 µM
[10]
  GI50: 25.3 µM
  TGI: 63.3 µM
[11]
  GI50: 17 µM
  TGI: 36.2 µM
[12]
  GI50: 7.62 µM
  TGI: 26.6 µM
[13]
  GI50: 13 µM
  TGI: 26.8 µM
[14]
  GI50: 16.6 µM
  TGI: 35.8 µM
[15]
  GI50: 15.9 µM
  TGI: 41.4 µM
[16]
  GI50: 25 µM
  TGI: 67.3 µM
[17]
  GI50: 25 µM
  TGI: 95.6 µM
[18]
  GI50: 6.14 µM
  TGI: 21.7 µM
[19]
  GI50: 13.6 µM
  TGI: 43.1 µM
[20]
  GI50: 11.7 µM
  TGI: 32.8 µM
[21]
  GI50: 14.3 µM
  TGI: 28.8 µM
[22]
  GI50: 16 µM
  TGI: 37.6 µM
[23]
  GI50: 18.4 µM
  TGI: > 100 µM
[24]
  GI50: 10.4 µM
  TGI: 24.4 µM
[25]
  GI50: 5.68 µM
  TGI: 22 µM
[26]
  GI50: 15.4 µM
  TGI: 55.5 µM
[27]
  GI50: 16.5 µM
  TGI: 31.6 µM
[28]
  GI50: 15.3 µM
  TGI: 35 µM
[29]
  GI50: 13.4 µM
  TGI: 32.8 µM
[30]
  GI50: 12.7 µM
  TGI: 30 µM
[31]
  GI50: 15.7 µM
  TGI: 53.1 µM
[32]
  GI50: 12.8 µM
  TGI: 36.2 µM
[33]
  GI50: 18 µM
  TGI: 49.1 µM
[34]
  GI50: 18.5 µM
  TGI: 38.5 µM
[35]
  GI50: 13.5 µM
  TGI: 40 µM
[36]
  GI50: 14.2 µM
  TGI: 32.8 µM
[37]
  GI50: 13.4 µM
  TGI: 44.7 µM
[38]
  GI50: 16.3 µM
  TGI: 48.5 µM
[39]
  GI50: 16.3 µM
  TGI: 34.9 µM
[40]
  GI50: 13.6 µM
  TGI: 31.7 µM
[41]
  GI50: 18.2 µM
  TGI: 37 µM
[42]
  GI50: 15.4 µM
  TGI: 31.8 µM
[43]
  GI50: 18.1 µM
  TGI: 36.2 µM
[44]
  GI50: 15 µM
  TGI: 29.5 µM
[45]
  GI50: 19.2 µM
  TGI: 36.4 µM
[46]
  GI50: 11.2 µM
  TGI: 23.3 µM
[47]
  GI50: 18.8 µM
  TGI: 47.1 µM
[48]
  GI50: 19.2 µM
  TGI: 41 µM
[49]
  GI50: 21.9 µM
  TGI: > 100 µM
[50]
  GI50: 17.7 µM
  TGI: 40.8 µM
[51]
  GI50: 13.7 µM
  TGI: 26.7 µM
[52]
  GI50: 18.4 µM
  TGI: 37.7 µM
[53]
  GI50: 8.34 µM
  TGI: 20.7 µM
[54]
  GI50: 13.4 µM
  TGI: 28.6 µM

## COc1cc(-n2ccnc2)cc(OC)c1OC
[1]
  GI50: 39.1 µM
  TGI: > 100 µM
[2]
  GI50: 35.8 µM
  TGI: > 100 µM
[3]
  GI50: 95.1 µM
  TGI: > 100 µM
[4]
  GI50: 34.6 µM
  TGI: > 100 µM
[5]
  GI50: > 100 µM
  TGI: > 100 µM
[6]
  GI50: 26.7 µM
  TGI: 55.8 µM
[7]
  GI50: 47.6 µM
  TGI: > 100 µM
[8]
  GI50: > 100 µM
  TGI: > 100 µM
[9]
  GI50: > 100 µM
  TGI: > 100 µM
[10]
  GI50: 84.4 µM
  TGI: > 100 µM
[11]
  GI50: 99.5 µM
  TGI: > 100 µM
[12]
  GI50: 31.9 µM
  TGI: > 100 µM
[13]
  GI50: 40 µM
  TGI: > 100 µM
[14]
  GI50: 31.9 µM
  TGI: > 100 µM
[15]
  GI50: 72.6 µM
  TGI: > 100 µM
[16]
  GI50: > 100 µM
  TGI: > 100 µM
[17]
  GI50: > 100 µM
  TGI: > 100 µM
[18]
  GI50: 11.1 µM
  TGI: 51.6 µM
[19]
  GI50: 68.1 µM
  TGI: > 100 µM
[20]
  GI50: 43.2 µM
  TGI: > 100 µM
[21]
  GI50: 60.3 µM
  TGI: > 100 µM
[22]
  GI50: 35.1 µM
  TGI: > 100 µM
[23]
  GI50: 41.7 µM
  TGI: > 100 µM
[24]
  GI50: 79 µM
  TGI: > 100 µM
[25]
  GI50: 75.6 µM
  TGI: > 100 µM
[26]
  GI50: 42.2 µM
  TGI: > 100 µM
[27]
  GI50: 36.2 µM
  TGI: > 100 µM
[28]
  GI50: > 100 µM
  TGI: > 100 µM
[29]
  GI50: 41.6 µM
  TGI: > 100 µM
[30]
  GI50: 60.6 µM
  TGI: > 100 µM
[31]
  GI50: 34.2 µM
  TGI: > 100 µM
[32]
  GI50: 51.6 µM
  TGI: > 100 µM
[33]
  GI50: > 100 µM
  TGI: > 100 µM
[34]
  GI50: > 100 µM
  TGI: > 100 µM
[35]
  GI50: 56.8 µM
  TGI: > 100 µM
[36]
  GI50: 50 µM
  TGI: > 100 µM
[37]
  GI50: 75.6 µM
  TGI: > 100 µM
[38]
  GI50: > 100 µM
  TGI: > 100 µM
[39]
  GI50: 37.9 µM
  TGI: > 100 µM
[40]
  GI50: 20.9 µM
  TGI: 63.1 µM
[41]
  GI50: > 100 µM
  TGI: > 100 µM
[42]
  GI50: 64.1 µM
  TGI: > 100 µM
[43]
  GI50: > 100 µM
  TGI: > 100 µM
[44]
  GI50: 59 µM
  TGI: > 100 µM
[45]
  GI50: 80.2 µM
  TGI: > 100 µM
[46]
  GI50: 86 µM
  TGI: > 100 µM
[47]
  GI50: > 100 µM
  TGI: > 100 µM
[48]
  GI50: > 100 µM
  TGI: > 100 µM
[49]
  GI50: > 100 µM
  TGI: > 100 µM
[50]
  GI50: 42.5 µM
  TGI: > 100 µM
[51]
  GI50: 58.6 µM
  TGI: > 100 µM
[52]
  GI50: > 100 µM
  TGI: > 100 µM
[53]
  GI50: 36 µM
  TGI: > 100 µM
[54]
  GI50: 21.4 µM
  TGI: > 100 µM
